Data set [1] has as its target T1, cloned human 5-HT6-expressing cell line (HTS111RTA) (Homo sapiens, UniProt P50406).
T1 construct: host or cells: purchased ready-to-assay cell line
As to the kind of experiment: intracellular calcium mobilization assay (antagonism of 2-Me 5-HT). The conditions noted are these: for IC50: antagonism of 2-Me-5-HT (500 nM) intracellular calcium mobilization. The data set is classed as cell-based.

Data set [2] has as its target 5-HT6R. As to conditions: cited from earlier work.
Data set [3] is described as follows: 1H-NMR pKa determination. The data set is classed as physicochemical. As to conditions: D2O solution; 1H-NMR titration in D2O, 298 K, corrected for H2O; piperazine nitrogen; read-out: pKa (pKa2). How it is done: All NMR spectra were performed on a Bruker Avance III HD-400 MHz spectrometer at 298 K. The ^1H-NMR experiments were acquired using water suppression in order to suppress the residual HDO signal. Solutions of the 3b and 4g 2 mM in D2O were prepared adding acetone 200 μM as an internal standard. The titrations were carried out progressively in a single NMR sample for each compound. The pH was adjusted with 0.1 mol/L of NaOH and 0.1 mol/L HCl, to cover the pH ranges 4.65–9.11 and 5.58–9.46 for 3b and 4g solutions, respectively. […] The chemical shifts (δ ppm) of the piperazine methylene protons were plotted against the pH for both compounds. The pKa were obtained from the inflection point of the resulting sigmoidal curve, for each compound.
The signal to upfield of the doublet of methylene protons of the piperazine ring was used to plot δ ppm vs. pH. In this case, the pKa^D correspond to inflection point in the resulting sigmoidal curve from the plot δ ppm vs. pH, for each compound (Figure 7B,D). […] The pKa value determined in D2O was corrected for H2O using the Krezel et al. equation [59].
The chemical shift is affected by the chemical and, consequently, the magnetic environment. Therefore, the protonation of basic species such as the nitrogen atoms in piperazine ring induce important changes in the chemical environment in the adjacent proton groups. […]

Several values for one entry are separate records, joined by “and”; a condition that tells them apart may be missing. Equal values may be shown once. Read-outs that look alike come from different tables or passages of the source.

T1 sequence (P50406 whole entry): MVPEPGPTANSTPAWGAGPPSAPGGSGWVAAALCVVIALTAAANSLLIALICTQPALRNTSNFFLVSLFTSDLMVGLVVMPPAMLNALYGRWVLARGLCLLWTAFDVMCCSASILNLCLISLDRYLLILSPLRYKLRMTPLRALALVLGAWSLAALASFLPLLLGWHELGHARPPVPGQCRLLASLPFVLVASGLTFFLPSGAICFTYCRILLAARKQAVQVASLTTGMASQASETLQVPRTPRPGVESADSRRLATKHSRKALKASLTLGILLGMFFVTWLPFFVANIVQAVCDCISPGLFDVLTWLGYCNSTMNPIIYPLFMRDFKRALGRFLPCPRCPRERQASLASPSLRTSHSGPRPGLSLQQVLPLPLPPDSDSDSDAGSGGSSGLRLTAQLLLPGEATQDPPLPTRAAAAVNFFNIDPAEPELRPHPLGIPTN

What is called EC50 is the concentration giving half of the maximal effect. For orientation: pKi means the Ki on a negative log10 scale, so that one unit is a factor of ten. On to `Cc1[nH]c2ccc(O)cc2c1CCN` [2-Me 5-HT, reference compound], for which, in data set [1], the EC50 turned out to be 0.119 µM. Moreover, the negative logarithm of the Ki (pKi) in data set [2] (Figure 1, known ligands) is reported as 7.34. For `COc1ccccc1N1CCNCC1` [2-methoxyphenyl piperazine], in data set [2], the “5-HT6R affinity compared with the compounds here reported” value is recorded as “substantially lower affinity”. By melting point is commonly meant the temperature, or range, at which the solid turns liquid. The compound `O=C(CBr)c1c[nH]c2ccccc12` [Compound 1] showed a melting point of 160.3 to 161 °C. In addition, the pKi in data set [2] (Table 2 reference value) was 8.70 [1]. For `Cc1ccc(S(=O)(=O)n2cc(C(=O)CN3CCN(c4ccccn4)CC3)c3ccccc32)cc1` [Compound 3a, 2-(4-(Pyridyl-2-yl)piperazin-1-yl)-1-(1-tosyl-1H-indol-3-yl)ethanone], the melting point was 74.9 to 75.7 °C and 75 to 76 °C. In general, pKa refers to the pH at which an ionisable group is half protonated. As for `COc1ccccc1N1CCN(CC(=O)c2cn(S(=O)(=O)c3ccc(C)cc3)c3ccccc23)CC1` [Compound 3b, 2-(4-(2-Methoxyphenyl)piperazin-1-yl)-1-(1-tosyl-1H-indol-3-yl)ethanone], the melting point is 132.3 to 133.6 °C and 132 to 134 °C. The pKa in data set [3] came out at 5.72.

With `Cc1ccc(S(=O)(=O)n2cc(C(=O)CN3CCN(c4ncccn4)CC3)c3ccccc32)cc1` [Compound 3c, 2-(4-(Pyrimidin-2-yl)piperazin-1-yl)-1-(1-tosyl-1H-indol-3-yl)ethanone], the melting point was 133 to 134 °C. With `O=C(CN1CCN(c2ncccn2)CC1)c1cn(S(=O)(=O)c2ccc(Cl)cc2)c2ccccc12` [Compound 3d, 1-(1-(4-Chlorophenylsulfonyl)-1H-indol-3-yl)-2-(4-(pyrimidin-2-yl)piperazin-1-yl)ethanone], the melting point was in the range of 168 to 169 °C.

On to `O=C(CN1CCN(c2ncccn2)CC1)c1cn(S(=O)(=O)c2ccc(F)cc2)c2ccccc12` [Compound 3e, 1-(1-(4-Fluorophenylsulfonyl)-1H-indol-3-yl)-2-(4-(pyrimidin-2-yl)piperazin-1-yl)ethanone], for which the melting point lay in the range of 145 to 146 °C.

In the case of `O=C(CN1CCN(c2ccccn2)CC1)c1cn(S(=O)(=O)c2ccc(I)cc2)c2ccccc12` [Compound 3f, 1-(1-(4-Iodophenylsulfonyl)-1H-indol-3-yl)-2-(4-(pyridin-2-yl)piperazin-1-yl)ethanone], the melting point is 179 to 180 °C. The compound `COc1ccccc1N1CCN(CC(=O)c2cn(S(=O)(=O)c3ccc(I)cc3)c3ccccc23)CC1` [Compound 3g, 1-(1-(4-Iodophenylsulfonyl)-1H-indol-3-yl)-2-(4-(2-methoxyphenyl)piperazin-1-yl)ethanone] displayed a melting point of 182 to 183 °C.

`O=C(CN1CCN(c2ncccn2)CC1)c1cn(S(=O)(=O)c2ccc(I)cc2)c2ccccc12` [Compound 3h, 1-(1-(4-Iodophenylsulfonyl)-1H-indol-3-yl)-2-(4-(pyrimidin-2-yl)piperazin-1-yl)ethanone] registered a melting point of 184 to 185 °C. As to `O=C(CN1CCN(c2ccccn2)CC1)c1cn(S(=O)(=O)c2cccc3ccccc23)c2ccccc12` [Compound 3i, 1-(1-(Naphthalen-1-ylsulfonyl)-1H-indol-3-yl)-2-(4-(pyridin-2-yl)piperazin-1-yl)ethanone], the melting point is 76 to 77 °C.

For the compound `COc1ccccc1N1CCN(CC(=O)c2cn(S(=O)(=O)c3cccc4ccccc34)c3ccccc23)CC1` [Compound 3j, 2-(4-(2-Methoxyphenyl)piperazin-1-yl)-1-(1-(naphthalen-1-ylsulfonyl)-1H-indol-3-yl)ethanone], the melting point fell in the range of 74 to 75 °C. `O=C(CN1CCN(c2ncccn2)CC1)c1cn(S(=O)(=O)c2cccc3ccccc23)c2ccccc12` [Compound 3k, 1-(1-(Naphthalen-1-ylsulfonyl)-1H-indol-3-yl)-2-(4-(pyrimidin-2-yl)piperazin-1-yl)ethanone] gave a melting point of 88 to 89 °C. The term IC50 denotes the concentration that gives 50% inhibition. Consider `Cc1ccc(S(=O)(=O)n2cc(C(O)CN3CCN(c4ccccn4)CC3)c3ccccc32)cc1` (stereo not drawn) [Compound 4a, 2-(4-(Pyridin-2-yl)piperazin-1-yl)-1-(1-tosyl-1H-indol-3-yl)ethanol], for which the melting point is 72.4 to 73.9 °C and 72 to 74 °C. In data set [1], the IC50 was determined as 0.783 µM. For the compound `COc1ccccc1N1CCN(CC(O)c2cn(S(=O)(=O)c3ccc(C)cc3)c3ccccc23)CC1` (stereo not drawn) [Compound 4b, 2-(4-(2-Methoxyphenyl)piperazin-1-yl)-1-(1-tosyl-1H-indol-3-yl)ethanol], the melting point was 86.3 to 86.9 °C and 86 to 87 °C. As to `Cc1ccc(S(=O)(=O)n2cc(C(O)CN3CCN(c4ncccn4)CC3)c3ccccc32)cc1` (stereo not drawn) [Compound 4c, 2-(4-(Pyrimidin-2-yl)piperazin-1-yl)-1-(1-tosyl-1H-indol-3-yl)ethanol], the melting point is 81 to 82 °C. The same measure, in the same setting: next, `O=S(=O)(c1ccc(Cl)cc1)n1cc(C(O)CN2CCN(c3ncccn3)CC2)c2ccccc21` (stereo not drawn) [Compound 4d, 1-(1-(4-Chlorophenylsulfonyl)-1H-indol-3-yl)-2-(4-(pyrimidin-2-yl)piperazin-1-yl)ethanol]: 76 to 77 °C and 81 to 82 °C; `O=S(=O)(c1ccc(F)cc1)n1cc(C(O)CN2CCN(c3ncccn3)CC2)c2ccccc21` (stereo not drawn) [Compound 4e, 1-(1-(4-Fluorophenylsulfonyl)-1H-indol-3-yl)-2-(4-(pyrimidin-2-yl)piperazin-1-yl)ethanol]: 72 to 73 °C. `O=S(=O)(c1ccc(I)cc1)n1cc(C(O)CN2CCN(c3ccccn3)CC2)c2ccccc21` (stereo not drawn) [Compound 4f, 1-(1-(4-Iodophenylsulfonyl)-1H-indol-3-yl)-2-(4-(pyridin-2-yl)piperazin-1-yl)ethanol] registered a melting point of 157 to 158 °C. The IC50 in data set [1] came to 24.6 µM. `COc1ccccc1N1CCN(CC(O)c2cn(S(=O)(=O)c3ccc(I)cc3)c3ccccc23)CC1` (stereo not drawn) [Compound 4g, 1-(1-(4-Iodophenylsulfonyl)-1H-indol-3-yl)-2-(4-(2-methoxyphenyl)piperazin-1-yl)ethanol] returned a melting point of 109 to 110 °C. In addition, in data set [1], the “inhibition of 2-Me-5HT-induced Ca2+ mobilization” value is given as “strong inhibition” and the IC50 turned out to be 0.204 µM. For the same compound, the pKa in data set [3] was 6.69. The compound `O=S(=O)(c1ccc(I)cc1)n1cc(C(O)CN2CCN(c3ncccn3)CC2)c2ccccc21` (stereo not drawn) [Compound 4h, 1-(1-(4-Iodophenylsulfonyl)-1H-indol-3-yl)-2-(4-(pyrimidin-2-yl)piperazin-1-yl)ethanol] showed a melting point of 171 to 172 °C. The IC50 in data set [1] came to 0.075 µM. The compound `O=S(=O)(c1cccc2ccccc12)n1cc(C(O)CN2CCN(c3ccccn3)CC2)c2ccccc21` (stereo not drawn) [Compound 4i, 1-(1-(Naphthalen-1-ylsulfonyl)-1H-indol-3-yl)-2-(4-(pyridin-2-yl)piperazin-1-yl)ethanol] registered a melting point of 80 to 81 °C. Further, in data set [1], the IC50 turned out to be 0.399 µM.

For `COc1ccccc1N1CCN(CC(O)c2cn(S(=O)(=O)c3cccc4ccccc34)c3ccccc23)CC1` (stereo not drawn) [Compound 4j, 2-(4-(2-Methoxyphenyl)piperazin-1-yl)-1-(1-(naphthalen-1-ylsulfonyl)-1H-indol-3-yl)ethanol], in data set [1], the “inhibition of 2-Me-5HT-induced Ca2+ mobilization” value is given as “strong inhibition” and the IC50 came out at 0.032 µM. The compound `O=S(=O)(c1cccc2ccccc12)n1cc(C(O)CN2CCN(c3ncccn3)CC2)c2ccccc21` (stereo not drawn) [Compound 4k, 1-(1-(Naphthalen-1-ylsulfonyl)-1H-indol-3-yl)-2-(4-(pyrimidin-2-yl)piperazin-1-yl)ethanol] had a melting point of 82 to 83 °C. Moreover, the IC50 in data set [1] is 0.688 µM. For the compound `COc1ccc(S(=O)(=O)n2cc(C(O)CN3CCOCC3)c3ccccc32)cc1` (stereo not drawn) [Compound 4l, 1-(1-(4-Methoxyphenylsulfonyl)-1H-indol-3-yl)-2-morpholinoethanol], the melting point was 149 to 152 °C. With `O=S(=O)(c1ccc(F)cc1)n1cc(C2=CCCNC2)c2ccccc21` [III], the pKi in data set [2] (Figure 1, known ligands) is on record as 8.70. For the compound `CN1CCC(c2cn(S(=O)(=O)c3ccc(F)cc3)c3ccccc23)C1` (stereo not drawn) [II], the pKi in data set [2] (Figure 1, known ligands) is recorded as 8.70.

Take `CC(C)c1ccc(S(=O)(=O)n2cc(N3CCN(C)CC3)c3ccccc32)cc1` [IV]: in data set [2] (Figure 1, known ligands), the pKi is given as 8.47. For `COc1ccc2c(c1)c(CCN(C)C)cn2S(=O)(=O)c1ccccc1` [I], the pKi in data set [2] (Figure 1, known ligands) is 8.64. For `CCN(CC)C(=O)[C@@H]1C=C2c3cccc4[nH]cc(c34)C[C@H]2N(C)C1` [LSD], in data set [2] (Figure 1, known ligands), the negative logarithm of the Ki (pKi) was 8.94. In the case of `CN1CC(Cl)=C(c2cn(S(=O)(=O)c3ccccc3)c3ccccc23)C1` [VI], the pKi in data set [2] (Figure 1, known ligands) was 8.57. Regarding `CN1CCC[C@@H]1Cc1cn(S(=O)(=O)c2ccccc2)c2ccccc12` [V], in data set [2] (Figure 1, known ligands), the pKi is on record as 9.52.

The values are drawn from PMC6273627, “Extended N-Arylsulfonylindoles as 5-HT6 Receptor Antagonists: Design, Synthesis & Biological Evaluation” (Molecules, 2016).
